Measured values published in PubChem BioAssay AID248 (DTP/NCI, 2004).
“And” between values parts separate entries of the source, which are not always exact repeats. Equal entries are not always repeated. Toxic doses and inconclusive results are not listed. Cut-off read from the data, not from the text of the source: active = T/C of 150% or more; inactive = T/C below 125%.

Test system: L1210 leukemia ip in BDF1 mice, survival T/C
Test: NCI In Vivo Anticancer Drug Screen. Data for tumor model L1210 Leukemia (intraperitoneal) in B6D2F1 (BDF1) mice
Conditions: higher = longer survival
Outline: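 Each compound was tested against a transplantable tumor grown in mice. The endpoint was survival, with treated animals benchmarked against vehicle controls as a simple ratio.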

[1] = endpoint: mean survival time, dose: 25.0 mg/kg/injection, schedule: Q01DX009 (ip), vehicle: Klucel (hydroxypropylcellulose) (HPC)
[2] = endpoint: mean survival time, dose: 100.0 mg/kg/injection, schedule: Q04DX003 (ip), vehicle: Klucel (hydroxypropylcellulose) (HPC)
[3] = endpoint: mean survival time, dose: 25.0 mg/kg/injection, schedule: Q01DX009 (ip), vehicle: saline with Tween-80
[4] = endpoint: mean survival time, dose: 50.0 mg/kg/injection, schedule: Q01DX009 (ip), vehicle: saline with Tween-80
[5] = endpoint: mean survival time, dose: 50.0 mg/kg/injection, schedule: Q01DX009 (ip), vehicle: saline
[6] = endpoint: mean survival time, dose: 100.0 mg/kg/injection, schedule: Q01DX009 (ip), vehicle: saline
[7] = endpoint: mean survival time, dose: 200.0 mg/kg/injection, schedule: Q01DX009 (ip), vehicle: saline

Measured: T/C

CCCN(C)N=Nc1ccccc1C(=O)O
inactive: endpoint: mean survival time, dose: 12.5 mg/kg/injection, schedule: Q01DX009 (ip), vehicle: Klucel (hydroxypropylcellulose) (HPC) 106 % of control and 113 % of control and 124 % of control | endpoint: mean survival time, dose: 12.5 mg/kg/injection, schedule: Q04DX003 (ip), vehicle: Klucel (hydroxypropylcellulose) (HPC) 105 % of control | [1] 114 % of control and 116 % of control | endpoint: mean survival time, dose: 25.0 mg/kg/injection, schedule: Q04DX003 (ip), vehicle: Klucel (hydroxypropylcellulose) (HPC) 118 % of control | endpoint: mean survival time, dose: 50.0 mg/kg/injection, schedule: Q04DX003 (ip), vehicle: Klucel (hydroxypropylcellulose) (HPC) 105 % of control | endpoint: mean survival time, dose: 75.0 mg/kg/injection, schedule: Q01DX009 (ip), vehicle: Klucel (hydroxypropylcellulose) (HPC) 87 % of control | [2] 113 % of control

O=C(N/N=C/c1ccco1)C1CCCO1 (stereo not drawn)
inactive: [1] 101 % of control | endpoint: mean survival time, dose: 50.0 mg/kg/injection, schedule: Q01DX009 (ip), vehicle: Klucel (hydroxypropylcellulose) (HPC) 102 % of control | endpoint: mean survival time, dose: 100.0 mg/kg/injection, schedule: Q01DX009 (ip), vehicle: Klucel (hydroxypropylcellulose) (HPC) 101 % of control and 114 % of control | endpoint: mean survival time, dose: 200.0 mg/kg/injection, schedule: Q01DX009 (ip), vehicle: Klucel (hydroxypropylcellulose) (HPC) 106 % of control

CCCCC(=O)NN
inactive: endpoint: mean survival time, dose: 12.5 mg/kg/injection, schedule: Q01DX009 (ip), vehicle: saline with Tween-80 103 % of control | endpoint: mean survival time, dose: 22.0 mg/kg/injection, schedule: Q01DX009 (ip), vehicle: saline with Tween-80 110 % of control | [3] 111 % of control and 112 % of control | [4] 100 % of control | endpoint: mean survival time, dose: 60.0 mg/kg/injection, schedule: Q01DX009 (ip), vehicle: saline with Tween-80 118 % of control

CC1=C(CC/C(C)=C/CCC(=O)O)C(C)(C)CCC1
inactive: [5] 100 % of control | [6] 100 % of control | endpoint: mean survival time, dose: 100.0 mg/kg/injection, schedule: Q04DX003 (ip), vehicle: saline 116 % of control | [7] 98 % of control | endpoint: mean survival time, dose: 200.0 mg/kg/injection, schedule: Q04DX003 (ip), vehicle: saline 100 % of control | endpoint: mean survival time, dose: 400.0 mg/kg/injection, schedule: Q04DX003 (ip), vehicle: saline 111 % of control

CSC(CC(=O)O)C(=O)O (stereo not drawn)
inactive: endpoint: mean survival time, dose: 75.0 mg/kg/injection, schedule: Q01DX001 (ip), vehicle: saline 97 % of control | endpoint: mean survival time, dose: 150.0 mg/kg/injection, schedule: Q01DX001 (ip), vehicle: saline 108 % of control

CCCCCCCCCCCCCCCCCCNC(=O)Nc1cc(C)ccc1C
inactive: endpoint: mean survival time, dose: 100.0 mg/kg/injection, schedule: Q01DX009 (ip), vehicle: gum acacia 87 % of control | endpoint: mean survival time, dose: 100.0 mg/kg/injection, schedule: Q04DX003 (ip), vehicle: gum acacia 92 % of control | endpoint: mean survival time, dose: 200.0 mg/kg/injection, schedule: Q01DX009 (ip), vehicle: gum acacia 96 % of control | endpoint: mean survival time, dose: 200.0 mg/kg/injection, schedule: Q04DX003 (ip), vehicle: gum acacia 92 % of control | endpoint: mean survival time, dose: 400.0 mg/kg/injection, schedule: Q01DX009 (ip), vehicle: gum acacia 92 % of control | endpoint: mean survival time, dose: 400.0 mg/kg/injection, schedule: Q04DX003 (ip), vehicle: gum acacia 87 % of control

[O-]/[N+](=N/O)c1ccc(Cl)cc1
inactive: endpoint: mean survival time, dose: 25.0 mg/kg/injection, schedule: Q01DX001 (ip), vehicle: saline with Tween-80 96 % of control | [3] 100 % of control | endpoint: mean survival time, dose: 25.0 mg/kg/injection, schedule: Q04DX003 (ip), vehicle: saline with Tween-80 103 % of control | endpoint: mean survival time, dose: 50.0 mg/kg/injection, schedule: Q01DX001 (ip), vehicle: saline with Tween-80 92 % of control | [4] 94 % of control | endpoint: mean survival time, dose: 50.0 mg/kg/injection, schedule: Q04DX003 (ip), vehicle: saline with Tween-80 94 % of control | endpoint: mean survival time, dose: 100.0 mg/kg/injection, schedule: Q01DX001 (ip), vehicle: saline with Tween-80 100 % of control | endpoint: mean survival time, dose: 100.0 mg/kg/injection, schedule: Q04DX003 (ip), vehicle: saline with Tween-80 92 % of control

CCOC(=O)COc1cc(Cl)ccn1
inactive: endpoint: mean survival time, dose: 100.0 mg/kg/injection, schedule: Q04DX002 (ip), vehicle: Klucel (hydroxypropylcellulose) (HPC) 110 % of control | endpoint: mean survival time, dose: 200.0 mg/kg/injection, schedule: Q04DX002 (ip), vehicle: Klucel (hydroxypropylcellulose) (HPC) 104 % of control | endpoint: mean survival time, dose: 400.0 mg/kg/injection, schedule: Q04DX002 (ip), vehicle: Klucel (hydroxypropylcellulose) (HPC) 104 % of control

CCC[CH2][Sn]([CH2]CCC)([CH2]CCC)[CH2]CC(N)=O
inactive: [5] 96 % of control and 106 % of control | [6] 96 % of control and 106 % of control | [7] 101 % of control

CC1OC(OC2CC(O)C3(CO)C4C(O)CC5(C)C(C6=CC(=O)OC6)CCC5(O)C4CCC3(O)C2)C(O)C(O)C1O (stereo not drawn)
inactive: endpoint: mean survival time, dose: 0.5 mg/kg/injection, schedule: Q01DX009 (ip), vehicle: saline 100 % of control | endpoint: mean survival time, dose: 1.0 mg/kg/injection, schedule: Q01DX009 (ip), vehicle: saline 121 % of control | endpoint: mean survival time, dose: 1.25 mg/kg/injection, schedule: Q01DX001 (ip), vehicle: saline 100 % of control | endpoint: mean survival time, dose: 2.0 mg/kg/injection, schedule: Q01DX009 (ip), vehicle: saline 113 % of control | endpoint: mean survival time, dose: 2.5 mg/kg/injection, schedule: Q01DX001 (ip), vehicle: saline 104 % of control | endpoint: mean survival time, dose: 4.0 mg/kg/injection, schedule: Q01DX009 (ip), vehicle: saline 106 % of control | endpoint: mean survival time, dose: 5.0 mg/kg/injection, schedule: Q01DX001 (ip), vehicle: saline 101 % of control | endpoint: mean survival time, dose: 6.25 mg/kg/injection, schedule: Q01DX001 (ip), vehicle: saline 105 % of control | endpoint: mean survival time, dose: 12.5 mg/kg/injection, schedule: Q01DX001 (ip), vehicle: saline 106 % of control | endpoint: median survival time, dose: 1.0 mg/kg/injection, schedule: Q01DX005 (ip), vehicle: water 105 % of control | endpoint: median survival time, dose: 2.0 mg/kg/injection, schedule: Q01DX005 (ip), vehicle: water 104 % of control | endpoint: median survival time, dose: 4.0 mg/kg/injection, schedule: Q01DX005 (ip), vehicle: water 109 % of control

COc1ccc(OC)c(CCCl)c1
inactive: endpoint: mean survival time, dose: 100.0 mg/kg/injection, schedule: Q01DX001 (ip), vehicle: acetone 91 % of control | endpoint: mean survival time, dose: 200.0 mg/kg/injection, schedule: Q01DX001 (ip), vehicle: acetone 93 % of control | endpoint: mean survival time, dose: 400.0 mg/kg/injection, schedule: Q01DX001 (ip), vehicle: acetone 88 % of control

O=S(=O)([O-])O.O=S(O)S(=O)O.[Co+3].[NH2-].[NH2-].[NH2-].[NH2-].[NH2-]
inactive: endpoint: mean survival time, dose: 25.0 mg/kg/injection, schedule: Q04DX002 (ip), vehicle: saline 91 % of control | endpoint: mean survival time, dose: 50.0 mg/kg/injection, schedule: Q04DX002 (ip), vehicle: saline 97 % of control

Cc1c(Cl)cccc1NC(=O)c1ccc([N+](=O)[O-])cc1
inactive: endpoint: mean survival time, dose: 100.0 mg/kg/injection, schedule: Q01DX009 (ip), vehicle: saline with Tween-80 91 % of control | endpoint: mean survival time, dose: 200.0 mg/kg/injection, schedule: Q01DX009 (ip), vehicle: saline with Tween-80 89 % of control | endpoint: mean survival time, dose: 400.0 mg/kg/injection, schedule: Q01DX009 (ip), vehicle: saline with Tween-80 89 % of control

COc1cccc(/C=N/N=C(N)N)c1OC
inactive: endpoint: mean survival time, dose: 62.5 mg/kg/injection, schedule: Q01DX Z (ip), vehicle: saline 101 % of control

CC1CN(C=O)CCN1C=O (stereo not drawn)
inactive: endpoint: mean survival time, dose: 100.0 mg/kg/injection, schedule: Q01DX001 (ip), vehicle: saline 98 % of control | endpoint: mean survival time, dose: 200.0 mg/kg/injection, schedule: Q01DX001 (ip), vehicle: saline 98 % of control | endpoint: mean survival time, dose: 400.0 mg/kg/injection, schedule: Q01DX001 (ip), vehicle: saline 101 % of control

Cc1cc(=O)[nH]c2c1ccc1[nH]c(=O)cc(C)c12
inactive: endpoint: mean survival time, dose: 100.0 mg/kg/injection, schedule: Q01DX001 (ip), vehicle: Klucel (hydroxypropylcellulose) (HPC) 91 % of control | [2] 95 % of control | endpoint: mean survival time, dose: 200.0 mg/kg/injection, schedule: Q01DX001 (ip), vehicle: Klucel (hydroxypropylcellulose) (HPC) 94 % of control | endpoint: mean survival time, dose: 400.0 mg/kg/injection, schedule: Q01DX001 (ip), vehicle: Klucel (hydroxypropylcellulose) (HPC) 91 % of control | endpoint: mean survival time, dose: 400.0 mg/kg/injection, schedule: Q04DX003 (ip), vehicle: Klucel (hydroxypropylcellulose) (HPC) 86 % of control
